Experimental data as given in ChEMBL document CHEMBL1143733, “Synthesis and structure-antituberculosis activity relationship of 1H-indole-2,3-dione derivatives” (Bioorg Med Chem, 2007).
Values after ≈ are worked out from the molar mass of the structure shown.

Key:
[1] = test system: Mycobacterium tuberculosis; test: Growth inhibition of Mycobacterium tuberculosis H37Rv at 6.25 ug/mL by microplate alamar blue assay; assay type: functional; conditions: read-out: GI
[2] = test system: Mycobacterium tuberculosis; test: Antituberculosis activity against Mycobacterium tuberculosis H37Rv by microplate alamar blue assay; assay type: functional
Vero = test: Cytotoxicity against Vero cells; assay type: cell-based; conditions: Chlorocebus sabaeus

Row | SMILES | inhibition of growth at 6.25 µg/mL [1] | MIC [2] | IC50 (Vero)
1 | CC1S/C(=N/N=C2\C(=O)Nc3ccc([N+](=O)[O-])cc32)N(c2ccc(Cl)cc2)C1=O (configuration not stated) | 0% | – | –
2 | O=C1Nc2ccc([N+](=O)[O-])cc2/C1=N/N=C1/SCC(=O)N1c1ccc(Cl)cc1 | 0% | – | –
3 | O=C1/C(=N\NC(=S)Nc2ccc(Cl)cc2)c2cc([N+](=O)[O-])ccc2N1CN1CCCCC1 | 54% | – | –
4 | O=C1Nc2ccc([N+](=O)[O-])cc2/C1=N/N=C1/SCC(=O)N1c1ccc(F)cc1 | 0% | – | –
5 | O=C1Nc2ccc(F)cc2/C1=N/NC(=S)Nc1ccc(F)cc1 | 58% | – | –
6 | Cc1ccc(NC(=S)N/N=C2\C(=O)N(CN3CCOCC3)c3ccc([N+](=O)[O-])cc32)cc1 | 92% | > 6.25 µg/mL | 17 µg/mL (≈ 37.4 µM)
7 | C=CCNC(=S)N/N=C1\C(=O)Nc2ccc([N+](=O)[O-])cc21 | 25% | – | –
8 | Cc1ccc(N2C(=O)C(C)S/C2=N/N=C2\C(=O)Nc3ccc([N+](=O)[O-])cc32)cc1 (configuration not stated) | 0% | – | –
9 | CCCCNC(=S)N/N=C1\C(=O)Nc2ccc([N+](=O)[O-])cc21 | 42% | – | –
10 | O=C1Nc2ccc([N+](=O)[O-])cc2/C1=N/NC(=S)Nc1ccc([N+](=O)[O-])cc1 | 2% | – | –
11 | O=C1/C(=N\NC(=S)Nc2ccc(Cl)cc2)c2cc([N+](=O)[O-])ccc2N1CN1CCOCC1 | 65% | – | –
12 | Cc1ccc(NC(=S)N/N=C2\C(=O)N(CN3CCCCC3)c3ccc([N+](=O)[O-])cc32)cc1 | 88% | – | –
13 | CCCCNC(=S)N/N=C1\C(=O)N(CN2CCOCC2)c2ccc(F)cc21 | 34% | – | –
14 | C=CCN1C(=O)CS/C1=N/N=C1\C(=O)Nc2ccc([N+](=O)[O-])cc21 | 2% | – | –
15 | C=CCNC(=S)N/N=C1\C(=O)Nc2ccc(F)cc21 | 30% | – | –
16 | CCCCN1C(=O)CS/C1=N/N=C1\C(=O)Nc2ccc([N+](=O)[O-])cc21 | 0% | – | –
17 | O=C1/C(=N\NC(=S)NC2CCCCC2)c2cc([N+](=O)[O-])ccc2N1CN1CCCCC1 | 87% | – | –
18 | O=C1/C(=N\NC(=S)Nc2ccc(F)cc2)c2cc(F)ccc2N1CN1CCOCC1 | 48% | – | –
19 | Cc1ccc(NC(=S)N/N=C2\C(=O)Nc3ccc([N+](=O)[O-])cc32)cc1 | 93% | 6.25 µg/mL (≈ 17.6 µM) | 2.45 µg/mL (≈ 6.89 µM)
20 | Cc1ccc(NC(=S)N/N=C2\C(=O)Nc3ccc(F)cc32)cc1 | 36% | – | –
21 | O=C1/C(=N\NC(=S)Nc2ccccc2)c2cc(F)ccc2N1CN1CCOCC1 | 56% | – | –
22 | O=C1Nc2ccc([N+](=O)[O-])cc2/C1=N/N=C1/SCC(=O)N1C1CCCCC1 | 0% | – | –
23 | CCCCN1C(=O)C(C)S/C1=N/N=C1\C(=O)Nc2ccc([N+](=O)[O-])cc21 (configuration not stated) | 10% | – | –

Row | SMILES | inhibition of growth at 6.25 µg/mL [1] | MIC [2] | IC50 (Vero)
24 | O=C1Nc2ccc(F)cc2/C1=N/NC(=S)Nc1ccccc1 | 61% | – | –
25 | O=C1Nc2ccc([N+](=O)[O-])cc2/C1=N/NC(=S)Nc1ccc(Br)cc1 | 90% | > 6.25 µg/mL | 2.59 µg/mL (≈ 6.16 µM)
26 | CO[C@H]1/C=C/O[C@@]2(C)Oc3c(C)c(O)c4c(O)c(c(/C=N/N5CCN(C)CC5)c(O)c4c3C2=O)NC(=O)/C(C)=C\C=C\[C@H](C)[C@H](O)[C@@H](C)[C@@H](O)[C@@H](C)[C@H](OC(C)=O)[C@@H]1C [RIFAMPIN] | 97% | 0.125 µg/mL (≈ 0.152 µM) | > 100 µg/mL
27 | CCCCNC(=S)N/N=C1\C(=O)N(CN2CCOCC2)c2ccc([N+](=O)[O-])cc21 | 30% | – | –
28 | CC1S/C(=N/N=C2\C(=O)Nc3ccc([N+](=O)[O-])cc32)N(c2ccc([N+](=O)[O-])cc2)C1=O (configuration not stated) | 9% | – | –
29 | O=C1Nc2ccc([N+](=O)[O-])cc2/C1=N/NC(=S)NC1CCCCC1 | 90% | > 6.25 µg/mL | 4.74 µg/mL (≈ 13.6 µM)
30 | O=C1/C(=N\NC(=S)Nc2ccc(Cl)cc2)c2cc(F)ccc2N1CN1CCCCC1 | 63% | – | –
31 | O=C1/C(=N\NC(=S)NCc2ccccc2)c2cc(F)ccc2N1CN1CCOCC1 | 0% | – | –
32 | C=CCN1C(=O)C(C)S/C1=N/N=C1\C(=O)Nc2ccc([N+](=O)[O-])cc21 (configuration not stated) | 3% | – | –
33 | O=C1Nc2ccc(F)cc2/C1=N/NC(=S)NC1CCCCC1 | 39% | – | –
34 | C=CCNC(=S)N/N=C1\C(=O)N(CN2CCCCC2)c2ccc(F)cc21 | 20% | – | –
35 | O=C1/C(=N\NC(=S)Nc2ccccc2)c2cc(F)ccc2N1CN1CCCCC1 | 45% | – | –
36 | CNC(=S)N/N=C1\C(=O)N(CN2CCOCC2)c2ccc(F)cc21 | 12% | – | –
37 | O=C1Nc2ccc(F)cc2/C1=N/NC(=S)Nc1ccc([N+](=O)[O-])cc1 | 31% | – | –
38 | O=C1/C(=N\NC(=S)NCc2ccccc2)c2cc(F)ccc2N1CN1CCCCC1 | 3% | – | –
39 | CNC(=S)N/N=C1\C(=O)N(CN2CCCCC2)c2ccc(F)cc21 | 20% | – | –
40 | CCCCNC(=S)N/N=C1\C(=O)Nc2ccc(F)cc21 | 16% | – | –
41 | CCNC(=S)N/N=C1\C(=O)N(CN2CCCCC2)c2ccc(F)cc21 | 2% | – | –
42 | CN1C(=O)CS/C1=N/N=C1\C(=O)Nc2ccc([N+](=O)[O-])cc21 | 0% | – | –
43 | CC1S/C(=N/N=C2\C(=O)Nc3ccc([N+](=O)[O-])cc32)N(C2CCCCC2)C1=O (configuration not stated) | 28% | – | –
44 | Cc1ccc(NC(=S)N/N=C2\C(=O)N(CN3CCCCC3)c3ccc(F)cc32)cc1 | 51% | – | –
45 | CC1S/C(=N/N=C2\C(=O)Nc3ccc([N+](=O)[O-])cc32)N(c2ccccc2)C1=O (configuration not stated) | 9% | – | –
46 | O=C1Nc2ccc([N+](=O)[O-])cc2/C1=N/NC(=S)Nc1ccccc1 | 33% | – | –

Row | SMILES | inhibition of growth at 6.25 µg/mL [1] | MIC [2] | IC50 (Vero)
47 | CCNC(=S)N/N=C1\C(=O)Nc2ccc([N+](=O)[O-])cc21 | 0% | – | –
48 | O=C1/C(=N\NC(=S)Nc2ccccc2)c2cc([N+](=O)[O-])ccc2N1CN1CCOCC1 | 93% | > 6.25 µg/mL | 2.8 µg/mL (≈ 6.36 µM)
49 | O=C1/C(=N\NC(=S)Nc2ccc(Cl)cc2)c2cc(F)ccc2N1CN1CCOCC1 | 58% | – | –
50 | C=CCNC(=S)N/N=C1\C(=O)N(CN2CCCCC2)c2ccc([N+](=O)[O-])cc21 | 22% | – | –
51 | O=C1Nc2ccc([N+](=O)[O-])cc2/C1=N/N=C1/SCC(=O)N1c1ccccc1 | 0% | – | –
52 | O=C1/C(=N\NC(=S)Nc2ccc(F)cc2)c2cc(F)ccc2N1CN1CCCCC1 | 38% | – | –
53 | O=C1Nc2ccc([N+](=O)[O-])cc2/C1=N/N=C1/SCC(=O)N1c1ccc(Br)cc1 | 0% | – | –
54 | CCN1C(=O)CS/C1=N/N=C1\C(=O)Nc2ccc([N+](=O)[O-])cc21 | 0% | – | –
55 | CC1S/C(=N/N=C2\C(=O)Nc3ccc([N+](=O)[O-])cc32)N(c2ccc(Br)cc2)C1=O (configuration not stated) | 3% | – | –
56 | CC1S/C(=N/N=C2\C(=O)Nc3ccc([N+](=O)[O-])cc32)N(c2ccc(F)cc2)C1=O (configuration not stated) | 5% | – | –
57 | CCNC(=S)N/N=C1\C(=O)Nc2ccc(F)cc21 | 8% | – | –
58 | Cc1ccc(N2C(=O)CS/C2=N/N=C2\C(=O)Nc3ccc([N+](=O)[O-])cc32)cc1 | 17% | – | –
59 | CNC(=S)N/N=C1\C(=O)N(CN2CCOCC2)c2ccc([N+](=O)[O-])cc21 | 96% | > 6.25 µg/mL | 7.61 µg/mL (≈ 20.1 µM)
60 | O=C1Nc2ccc([N+](=O)[O-])cc2/C1=N/NC(=S)Nc1ccc(Cl)cc1 | 75% | – | –
61 | O=C1/C(=N\NC(=S)Nc2ccccc2)c2cc([N+](=O)[O-])ccc2N1CN1CCCCC1 | 31% | – | –
62 | O=C1/C(=N\NC(=S)NC2CCCCC2)c2cc(F)ccc2N1CN1CCOCC1 | 33% | – | –
63 | O=C1Nc2ccc([N+](=O)[O-])cc2/C1=N/NC(=S)Nc1ccc(F)cc1 | 24% | – | –
64 | CCNC(=S)N/N=C1\C(=O)N(CN2CCOCC2)c2ccc(F)cc21 | 1% | – | –
65 | O=C1/C(=N\NC(=S)NC2CCCCC2)c2cc([N+](=O)[O-])ccc2N1CN1CCOCC1 | 90% | 6.25 µg/mL (≈ 14 µM) | –
66 | C=CCNC(=S)N/N=C1\C(=O)N(CN2CCOCC2)c2ccc(F)cc21 | 24% | – | –
67 | O=C1Nc2ccc(F)cc2/C1=N/NC(=S)Nc1ccc(Cl)cc1 | 37% | – | –
